Measured values from ChEMBL document CHEMBL3603838, “Guanidinium compounds with sub-micromolar activities against Mycobacterium tuberculosis. Synthesis, characterization and biological evaluations” (Bioorg Med Chem, 2015).
Converted amounts (≈) assume the structure as drawn.

Tests used:
[1] = system: Mycobacterium tuberculosis; test: Antimycobacterial activity against Mycobacterium tuberculosis H37Rv after 6 days by MTT assay; assay type: functional, organism-based; conditions: 144 h
[2] = Selectivity index, ratio of CC50 for human MRC5 cells to MIC for Mycobacterium tuberculosis H37Rv; assay type: toxicity, cell-based; conditions: read-out: Selectivity Index
[3] = Cytotoxicity against human MRC5 cells after 24 hrs; assay type: cell-based

Row | Structure (SMILES) | IC50 [1] | MIC [1] | selectivity ratio [2] | CC50 at 24 h [3]
1 | O=C(O)c1cn(C2CC2)c2cc(N3CCNCC3)c(F)cc2c1=O [CIPROFLOXACIN] | 600 nM | 2.5 µM (≈ 0.828 µg/mL) | – | –
2 | N=C(N)NCCc1ccc(OCc2ccc(COc3ccc(CCNC(=N)N)cc3)cc2)cc1.O=C(O)C(F)(F)F | 800 nM | 3.1 µM | 10 | 21 µg/mL
3 | N=C(N)NCCc1ccc(OCc2c(COc3ccc(CCNC(=N)N)cc3)c(COc3ccc(CCNC(=N)N)cc3)c(COc3ccc(CCNC(=N)N)cc3)c(COc3ccc(CCNC(=N)N)cc3)c2COc2ccc(CCNC(=N)N)cc2)cc1 | 3800 nM | 12.5 µM (≈ 15.3 µg/mL) | 1 | 26 µg/mL (≈ 21.2 µM)
4 | N=C(N)NCCc1ccc(OCc2ccccc2)cc1 | 5900 nM | 25 µM (≈ 6.73 µg/mL) | 2.6 | 26 µg/mL (≈ 96.5 µM)
5 | NNC(=O)c1ccncc1 [ISONIAZID] | 220 nM | 0.6 µM (≈ 0.0823 µg/mL) | > 125 | > 10 µg/mL
6 | N=C(N)NCCc1ccc(OCc2cccc(COc3ccc(CCNC(=N)N)cc3)c2)cc1.O=C(O)C(F)(F)F | 700 nM | 3.1 µM | 16 | 34.5 µg/mL
7 | N=C(N)NCCc1ccc(OCc2cc(COc3ccc(CCNC(=N)N)cc3)cc(COc3ccc(CCNC(=N)N)cc3)c2)cc1.O=C(O)C(F)(F)F | 350 nM | 0.8 µM | 49 | 39.5 µg/mL
8 | N=C(N)NCCc1ccc(OCc2cc(COc3ccc(CCNC(=N)N)cc3)c(COc3ccc(CCNC(=N)N)cc3)cc2COc2ccc(CCNC(=N)N)cc2)cc1.O=C(O)C(F)(F)F | 500 nM | 3.2 µM | 11.5 | 49 µg/mL
9 | N=C(N)NCCc1ccc(OCc2ccccc2COc2ccc(CCNC(=N)N)cc2)cc1.O=C(O)C(F)(F)F | 1500 nM | 6.2 µM | 24 | 100 µg/mL
10 | CC[C@@H](CO)NCCN[C@@H](CC)CO [ETHAMBUTOL] | – | 9.8 µM (≈ 2 µg/mL) | > 5 | > 10 µg/mL
11 | CN[C@@H]1[C@H](O[C@H]2[C@H](O[C@H]3[C@H](O)[C@@H](O)[C@H](N=C(N)N)[C@@H](O)[C@@H]3N=C(N)N)O[C@@H](C)[C@]2(O)C=O)O[C@@H](CO)[C@H](O)[C@H]1O [STREPTOMYCIN] | – | 0.7 µM (≈ 0.407 µg/mL) | – | –
12 | N=C(N)NCCc1cc2c(O)c(c1)Cc1cc(CCNC(=N)N)cc(c1O)Cc1cc(CCNC(=N)N)cc(c1O)Cc1cc(CCNC(=N)N)cc(c1O)C2 | – | 0.8 µM (≈ 0.612 µg/mL) | > 256 | > 256 µg/mL
